# Data reported in patent publication US9403830B2, “Inhibitors of leukotriene production” (Boehringer Ingelheim International GmbH, priority 2012, dated 2016).
# Key:
# [1] = target: T1, human LTA4 hydrolase (Homo sapiens, UniProt P09960); assay: LTA4H Enzyme assay (peptidase, Arg-AMC cleavage); format: biochemical; conditions: LTA4H enzyme 1 nM, Arg-AMC substrate 50 μM, room temperature 1 h, fluorescence 380/460 nm
# T1 sequence (P09960 1-611): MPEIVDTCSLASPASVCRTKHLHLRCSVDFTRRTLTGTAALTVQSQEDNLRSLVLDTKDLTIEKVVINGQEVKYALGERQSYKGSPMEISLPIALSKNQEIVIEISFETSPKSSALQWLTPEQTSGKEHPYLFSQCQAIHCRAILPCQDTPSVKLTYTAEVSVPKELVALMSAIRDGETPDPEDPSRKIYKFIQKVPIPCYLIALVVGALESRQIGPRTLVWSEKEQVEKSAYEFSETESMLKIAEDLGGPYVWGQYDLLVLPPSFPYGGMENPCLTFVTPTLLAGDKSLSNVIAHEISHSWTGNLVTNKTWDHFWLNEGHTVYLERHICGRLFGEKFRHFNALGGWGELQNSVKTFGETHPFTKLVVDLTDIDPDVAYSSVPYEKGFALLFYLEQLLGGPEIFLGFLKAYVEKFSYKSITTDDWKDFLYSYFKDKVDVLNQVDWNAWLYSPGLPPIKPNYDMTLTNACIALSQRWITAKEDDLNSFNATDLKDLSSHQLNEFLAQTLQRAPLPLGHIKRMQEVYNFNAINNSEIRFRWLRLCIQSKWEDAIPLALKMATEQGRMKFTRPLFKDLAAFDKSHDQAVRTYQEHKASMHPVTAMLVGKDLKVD
# In short: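 Human LTA4H (1 nM final) incubated with compound and Arg-AMC (50 μM final) in 50 mM Tris-HCl pH 7.5, 100 mM KCl, 0.5% BSA, 1 h at room temperature. Product read as AMC fluorescence (ex 380/em 460 nm); IC50 reported.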
# [2] = tested on: LTB4 synthesis in human whole blood; assay: human whole blood (HWB) assay, inhibition of LTB4 production; format: cell-based; conditions: heparinized human whole blood, calcimycin 20 μM stimulation, plasma LTB4
# In short: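 Heparinized human whole blood preincubated with compound 15 min at 37 °C, then stimulated with 20 μM (final) calcimycin for 30 min at 37 °C. Plasma LTB4 measured by antibody-based HTRF; IC50 reported.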
Structure (SMILES),IC50 [1] [nM],IC50 [2] [nM]
"CN(Cc1nc2cc(Oc3ccc(-c4ccn[nH]4)cc3)ccc2[nH]1)[C@@H]1CCOC1 [Example 78, Methyl-{5-[4-(2H-pyrazol-3-yl)-phenoxy]-1H-benzoimidazol-2-ylmethyl}-(R)-tetrahydro-furan-3-yl-amine]",0.089,95
"CNC(=O)C1CCN(CC2Cc3ccc(Oc4ccc(-c5ccn[nH]5)cc4)cc3O2)CC1 (stereo not shown) [Example 137, 1-{6-[4-(2H-Pyrazol-3-yl)-phenoxy]-2,3-dihydro-benzofuran-2-ylmethyl}-piperidine-4-carboxylic acid methylamide]",0.57,190
"c1cc(-c2ccc(Cc3ccc4nc(CN5CCOCC5)cn4c3)cc2)[nH]n1 [Example 252, 2-Morpholin-4-ylmethyl-6-[4-(2H-pyrazol-3-yl)-benzyl]-imidazo[1,2-a]pyridine]",0.93,250
"CC(C)N1CCN(Cc2nc3cc(Oc4ccc(-c5ccn[nH]5)cc4)ccc3[nH]2)CC1 [Example 64, 2-(4-Isopropyl-piperazin-1-ylmethyl)-5-[4-(2H-pyrazol-3-yl)-phenoxy]-1H-benzoimidazole]",0.14,180
"CN(C)C(=O)C1CCN(CC2Cc3ccc(Oc4ccc(-c5ccn[nH]5)cc4)cc3O2)CC1 (stereo not shown) [Example 197, 1-{6-[4-(2H-Pyrazol-3-yl)-phenoxy]-2,3-dihydro-benzofuran-2-ylmethyl}-piperidine-4-carboxylic acid dimethylamide]",0.46,180
"O=C(O)c1nc2cc(Oc3ccc(-c4cc[nH]n4)cc3)ccc2[nH]1 [Example 69, 5-[4-(1H-Pyrazol-3-yl)-phenoxy]-1H-benzoimidazole-2-carboxylic acid]",3.9,650

# Next, values leading:
IC50 [1] [nM],IC50 [2] [nM],Structure (SMILES)
2.1,740,"c1cc(-c2ccc(Oc3ccc4nc(CN5CCCC6(COC6)C5)ccc4c3)nc2)[nH]n1 [Example 48, 2-(2-Oxa-6-aza-spiro[3.5]non-6-ylmethyl)-6-[5-(2H-pyrazol-3-yl)-pyridin-2-yloxy]-quinoline]"
2.6,470,"c1cc(-c2ccc(Oc3ccc4c(CN5CCOCC5)n[nH]c4c3)nc2)[nH]n1 [Example 113, 3-Morpholin-4-ylmethyl-6-[5-(2H-pyrazol-3-yl)-pyridin-2-yloxy]-1H-indazole]"
0.17,200,"c1cc(-c2ccc(Oc3ccc4[nH]c(CNCC5CCOCC5)nc4c3)cc2)[nH]n1 [Example 106, {5-[4-(2H-Pyrazol-3-yl)-phenoxy]-1H-benzoimidazol-2-ylmethyl}-(tetrahydro-pyran-4-ylmethyl)-amine]"
1.1,190,"O=C1CCC2(CCN(Cc3ccc4cc(Oc5ccc(-c6ccn[nH]6)cn5)ccc4n3)CC2)N1 [Example 30, 8-{6-[5-(2H-Pyrazol-3-yl)-pyridin-2-yloxy]-quinolin-2-ylmethyl}-1,8-diaza-spiro[4.5]decan-2-one]"
0.048,120,"c1cc(-c2ccc(Oc3ccc4nc(CN5CCC5)ccc4c3)cc2)[nH]n1 [Example 244, 2-Azetidin-1-ylmethyl-6-[4-(2H-pyrazol-3-yl)-phenoxy]-quinoline]"
0.82,230,"O[C@H]1CCN(Cc2ccc3cc(Oc4ccc(-c5ccn[nH]5)cn4)ccc3n2)C1 [Example 210, (S)-1-{6-[5-(2H-Pyrazol-3-yl)-pyridin-2-yloxy]-quinolin-2-ylmethyl}-pyrrolidin-3-ol]"
0.84,210,"CC(=O)NC1CCN(Cc2ccc3cc(Oc4ccc(-c5cc[nH]n5)cn4)ccc3n2)CC1 [Example 237, N-(1-{6-[5-(1H-Pyrazol-3-yl)-pyridin-2-yloxy]-quinolin-2-ylmethyl}-piperidin-4-yl)-acetamide]"
0.065,120,"c1cc(-c2ccc(Oc3ccc4[nH]c(CN5CCCCCC5)nc4c3)cc2)[nH]n1 [Example 163, 2-Azepan-1-ylmethyl-5-[4-(2H-pyrazol-3-yl)-phenoxy]-1H-benzoimidazole]"
